EP0233461B2, “4,5,6-Substituted-2-pyrimidinamines” (AMERICAN CYANAMID COMPANY, priority 1986, dated 1987)
Where a name gives a salt, the structure may show the parent alone.

Test system: human basophils
Assay: Inhibition of histamine release from immunologically stimulated human basophils
Format: cell-based
Settings: Homo sapiens, concentration causing 50% inhibition of histamine release, by linear regression; active if IC50 ≦ 48 µM
Method: The blood is allowed to sediment at room temperature in two 50 ml polycarbonate centrifuge tubes until a sharp interface develops between the red cells and plasma (60-90 minutes). The plasma (top) layer from each tube is withdrawn by pipet and transferred to respective 50 ml polycarbonate tubes. The plasma is centrifuged for 8 minutes at 110X G at 4°C. The supernatant is carefully poured off as completely as possible and the cell button is resuspended in 2-3 ml of Tris-A buffer using a siliconized Pasteur pipet. The resuspension is accomplished by drawing the liquid gently in an out of the pipet, with the tip below the liquid until an even suspension of cells is obtained. Sufficient Tris-A buffer is then added to bring the volume in the tube to about 45 ml and the tube is centrifuged at 110X G for 8 minutes at 4°C. The supernatant is poured off and the cell button is resuspended and centrifuged as described above. The supernatant is poured off and the cell button is suspended in 2-3 ml of Tris-ACM buffer to make the final volume sufficient to allow addition to the reaction tubes. Reaction tubes containing anti-IgE or antigens, either alone or with test compound in a total volume of 0.2 ml are prepared and placed in a 37°C bath. The cells are warmed to 37°C and frequently swirled to ensure an even suspension, while 1.0 ml aliquots are added to each reaction tube. The tubes are then incubated for 60 minutes at 37°C, vortexing the tubes gently every 15 minutes to keep the cells evenly suspended. When the reaction is complete, the tubes are centrifuged at 4°C for 10 minutes at 1500 rpm to sediment the cells. […] Blanks and totals are included in each test. The blanks have cells and all reagents except antigen or anti-IgE. The totals contain 0.24 ml of 8% perchloric acid, one ml of cells and 0.2 ml of buffer. All samples are then centrifuged to remove the precipitate protein. […] The automated system consists of the following Technicon Autoanalyzer II components Sampler IV, Dual-Speed Proportioning Pump III, Fluoronephelometer with a narrow pass primary filter 7-60 and a secondary filter 3-74, Recorder, and Digital Printer. The manifold used is the one described by Siraganian vide supra, with the following modifications: the dialyzer is omitted; all pumping tubes pass through a single proportioning pump with large capacity and twice the volume of sample is taken for anaylsis. The automated chemistry consists of the following steps: Extraction from alkaline saline into butanol, back extraction into dilute hydrochloric acid by addition of heptane, reaction of histamine with o-phthaldialdehyde (OPT) at high pH and conversion of the OPT adduct to a stable fluorophore with phosphoric acid. The reaction product is then passed through the fluorometer. The full scale response is adjusted to 50 ng histamine base with a threshold sensitivity of approximately 0.5 ng. The instrument blank (wash) is substracted from the ng histamine of each sample. Then the ng histamine of each sample is divided by the mean of the three totals (cells lysed with perchloric acid) to obtain percent release. Control samples contain antigen but no test compound. Blank (or spontaneous release) samples contain neither antigen nor test compound. The mean of the blanks (three replicates) is subtracted from the percent release for controls and test compounds.

Structure (SMILES) | IC50
COc1ccc(Nc2nccc(-c3cccnc3)n2)cc1 [N-(4-Methoxyphenyl)-4-(3-pyridinyl)-2-pyrimidinamine, sulfate] | < 48 µM

Same assay, conditions: Homo sapiens, concentration causing 50% inhibition of histamine release, by linear regression; active if IC50 ≦ 48 µM; read-out: IC50

Structure (SMILES) | IC50
c1ccc2c(Nc3nccc(-c4ccncc4)n3)cccc2c1 [N-1-Naphthalenyl-4-(4-pyridinyl)-2-pyrimidinamine] | 31.3 µM
CC(N)c1cccc(Nc2nccc(-c3cccnc3)n2)c1 (stereo not shown) [N-[3-(1-Aminoethyl)phenyl)-4-(3-pyridinyl)-2-pyrimidinanine, trihydrochloride] | 5.1 µM
Cc1cc(-c2ccc(C)s2)nc(Nc2ccccc2)n1 [4-Methyl-6-(5-methyl-2-thienyl)-N-phenyl-2-pyrimidinamine] | 24.8 µM
COc1ccc(Nc2nccc(-c3ccco3)n2)cc1 [4-(2-Furanyl)-N-(4-methoxyphenyl)-2-pyrimidinamine] | < 48 µM
Cc1cccc(Nc2nccc(-c3cnccn3)n2)c1 [N-(3-Methylphenyl)-4-pyrazinyl-2-pyrimidinamine] | 5.4 µM
Cc1cccc(Nc2nccc(-c3cccnc3)n2)c1 [N-(3-Methylphenyl)-4-(3-pyridinyl)-2-pyrimidinamine] | 1.5 µM
CNc1ccc(Nc2nccc(-c3cccnc3)n2)cc1 [N-Methyl-N'-[4-(3-pyridinyl)-2-pyrimidinyl]-1,4-benzenediamine] | 2.1 µM
CCN(CC)CCOc1cccc(Nc2nccc(-c3ccncc3)n2)c1 [N-[3-[2-(Diethylamino)ethoxy]phenyl]-4-(4-pyridinyl)-2-pyrimidinamine] | 0.7 µM
Clc1cccc(Nc2nccc(-c3cccnc3)n2)c1 [N-(3-Chlorophenyl)-4-(3-pyridinyl)-2-pyrimidinamine] | 1.5 µM
Cc1cc(C)cc(Nc2ncc(C)c(-c3ccco3)n2)c1 [N-(3,5-Dimethylphenyl)-4-(2-furanyl)-5-methyl-2-pyrimidinamine] | < 24 µM
CC(=O)N(C)c1ccc(Nc2nccc(-c3ccccn3)n2)cc1 [N-Methyl-N-[4-[[4-(2-pyridinyl)-2-pyrimidinyl]amino]phenyl]acetamide] | 0.6 µM
CC(=NNC(N)=O)c1ccc(Nc2nccc(-c3cccnc3)n2)cc1 [2-[1-[4-[[4-(3-Pyridinyl)-2-pyrimidinyl]amino]phenyl]ethylidene]hydrazinecarboxamide] | 8.1 µM
COc1cccc(Nc2nccc(-c3ccccn3)n2)c1 [N-(3-Methoxyphenyl)-4-(2-pyridinyl)-2-pyrimidinamine] | 0.2 µM

Further lines, results first:

IC50 | Structure (SMILES)
1.3 µM | CCN(CC)CCOc1cccc(Nc2nccc(-c3ccco3)n2)c1 [N-[3-[2-(Diethylamino)ethoxy]phen-yl]-4-(2-furanyl)-2-pyrimidinamine]
2.3 µM | Brc1ccc(Nc2nccc(-c3cccnc3)n2)cc1 [N-(4-Bromophenyl)-4-(3-pyridinyl)-2-pyrimidinamine]
5.8 µM | COc1cccc(Nc2nccc(-c3cc(C)oc3C)n2)c1 [N-(3-Methoxyphenyl)-4-(2,5-dimethyl-3-furanyl)-2-pyrimidinamine]
3.4 µM | CCN(CC)c1ccc(Nc2nccc(-c3ccco3)n2)cc1 [N,N-Diethyl-N'-[4-(2-furanyl)-2-pyrimidinyl]-1,4-benzenediamine]
1.8 µM | Cc1ccsc1-c1ccnc(Nc2ccc(N(C)C)cc2)n1 [N,N-Dimethyl-N'-[4-(3-methyl-2-thienyl)-2-pyrimidinyl]-1,4-benzenediamine]
2.2 µM | Cc1cccc(Nc2nccc(-c3cc4ccccc4[nH]3)n2)c1 [4-(1H-Indol-2-yl)-N-(3-methylphenyl)-2-pyrimidinamine]
5.7 µM | Cc1ccc(-c2ccnc(Nc3cccc(N(C)C)c3)n2)s1 [N,N-Dimethyl-N'-[4-(5-methyl-2-thienyl)-2-pyrimidinyl]-1,3-benzenediamine]
0.4 µM | COc1cccc(Nc2nccc(-c3ccncc3)n2)c1 [N-(3-Methoxyphenyl)-4-(4-pyridinyl)-2-pyrimidinamine]
3.6 µM | CC(=O)Nc1ccc(Nc2nccc(-c3cccnc3)n2)cc1 [N-[4-[[4-(3-Pyridinyl)-2-pyrimidin-yl]amino]phenyl]acetamide]
0.5 µM | CN(C)c1cccc(Nc2nccc(-c3ccccn3)n2)c1 [N,N-Dimethyl-N'-[4-(2-pyridinyl)-2-pyrimidinyl]-1,3-benzenediamine]
< 48 µM | Fc1ccc(Nc2nccc(-c3ccncc3)n2)c(F)c1 [N-(2,4-Difluorophenyl)-4-(4-pyri-dinyl)-2-pyrimidinamine]
0.1 µM | c1ccc(-c2ccnc(Nc3cccc(-n4ccnc4)c3)n2)nc1 [N-[3-(1H-Imidazol-1-yl)phenyl]-4-(2-pyridinyl)-2-pyrimidinamine]
9.7 µM | CCc1cccc(Nc2nccc(-c3ccco3)n2)c1 [N-(3-Ethylphenyl)-4-(2-furanyl)-2-pyrimidinamine]
40 µM | Cc1cnc(Nc2cccc(N(C)C)c2)nc1-c1ccco1 [N,N-Dimethyl-N'-[4-(2-furanyl)-5-methyl-2-pyrimidinyl]-1,3-benzene-diamine]
< 24 µM | CN1CCN(c2ccc(Nc3nccc(-c4ccccn4)n3)cc2)CC1 [N-[4-(4-Methyl-1-piperazinyl)phenyl]-4-(2-pyridinyl)-2-pyrimidinamine]
0.8 µM | CC(=O)c1ccc(Nc2nccc(-c3cccnc3)n2)cc1 [N-(4-Acetylphenyl)-4-(3-pyridinyl)-2-pyrimidinamine]
0.3 µM | COc1cccc(Nc2nccc(-c3ccco3)n2)c1 [4-(2-Furanyl)-N-(3-methoxyphenyl)-2-pyrimidinamine]
10.1 µM | CCN(CC)c1ccc(Nc2nccc(-c3ccccn3)n2)cc1 [N,N-Diethyl-N'-[4-(2-pyridinyl)-2-pyrimidinyl]-1,4-benzenediamine]
5.6 µM | CN(C)c1ccc(Nc2nccc(-c3cc4ccccc4o3)n2)cc1 [N'-[4-(2-Benzofuranyl)-2-pyrimidinyl]-N,N-dimethyl-1,4-benzenediamine]
4.6 µM | CC(C)(C)c1ccc(Nc2nccc(-c3cccs3)n2)cc1 [N-[4-(1,1-Dimethylethyl)phenyl]-4-(2-thienyl)-2-pyrimidinamine]
3 µM | Nc1ccc(Nc2nccc(-c3ccncc3)n2)cc1 [N-[4-(4-Pyridinyl)-2-pyrimidinyl]-1,4-benzenediamine, hydrochloride]

Same assay, conditions: concentration causing 50% inhibition of histamine release, by linear regression; active if IC50 ≦ 48 µM; dihydrochloride; read-out: IC50

Structure (SMILES) | IC50
c1ccc(Nc2nccc(-c3ccncc3)n2)cc1 [N-Phenyl-4-(4-pyridinyl)-2-pyrimidinamine, dihydrochloride] | 3 µM

Same assay, conditions: concentration causing 50% inhibition of histamine release, by linear regression; active if IC50 ≦ 48 µM; phosphate; read-out: IC50

Structure (SMILES) | IC50
Cc1cc(C)cc(Nc2nccc(-c3cccnc3)n2)c1 [N-(3,5-Dimethylphenyl)-4-(3-pyridinyl)-2-pyrimidinamine, phosphate] | 3 µM
COc1ccc(Nc2nccc(-c3cccnc3)n2)cc1 [N-(4-Methoxyphenyl)-4-(3-pyridinyl)-2-pyrimidinamine, phosphate] | 3.2 µM
c1ccc(Nc2nccc(-c3ccncc3)n2)cc1 [N-Phenyl-4-(4-pyridinyl)-2-pyrimidinamine, phosphate] | 3.3 µM
c1ccc(Nc2nccc(-c3cccnc3)n2)cc1 [N-Phenyl-4-(3-pyridinyl)-2-pyrimidinamine, phosphate] | 2.7 µM

Same assay, conditions: concentration causing 50% inhibition of histamine release, by linear regression; active if IC50 ≦ 48 µM; read-out: IC50

IC50 | Structure (SMILES)
3.5 µM | CN(C)c1cccc(Nc2nccc(-c3ccncc3)n2)c1 [N,N-Dimethyl-N'-[4-(4-pyridinyl)-2-pyrimidinyl]-1,3-benzened] [N,N-Dimethyl-N'-[4-(4-pyridinyl)-2-pyrimidinyl]-1,3-benzenediamine]
1 µM | CN(C)c1cccc(Nc2nccc(-c3ccncc3)n2)c1 [N,N-Dimethyl-N'-[4-(4-pyridinyl)-2-pyrimidinyl)]-1,3-benzene] [N,N-Dimethyl-N'-[4-(4-pyridinyl)-2-pyrimidinyl)]-1,3-benzenediamine, sulfate]

Same assay, conditions: concentration causing 50% inhibition of histamine release, by linear regression; active if IC50 ≦ 48 µM; sulfate

Structure (SMILES) | IC50
FC(F)(F)c1cccc(Nc2nccc(-c3ccccn3)n2)c1 [4-(2-Pyridinyl)-N-[3-(trifluoromethyl)phenyl]-2-pyrimidinamine, sulfate] | 3 µM
